What was measured:
Assay type in all cases: cell-based
[1] = test system: HBsAg; assay: PHH HBV natural infection assay, HBsAg (alphalisa); conditions: Hepatitis B virus, 72 h, read-out: HBsAg IC50
Method: (§1) Detailed procedures regarding primary human hepatocyte (PHH) HBV natural infection assay are described as below. One tube of frozen PHH (10 million cells) is thawed in 37° C. water bath and then transferred to 20 mL of PHH thawing medium (Sigma, InVitroGRO HT Medium, Cat. S03319) with gently mixing. The cells were then centrifuged at […] for 5 min, the supernatant was discarded and the tube was refilled with 25 mL of PHH plating medium (Sigma, InVitroGRO CP Medium, Cat. S03317). The tube was shaken very gently to re-suspend all cells, and then 50 μl of cells were transferred to each well 384-well collagen I coated plate with appropriate liquid handling equipment, e.g. Integra VIAFLO384 or Agilent Bravo. The cells were then cultured for 24 hours in a cell incubator. For HBV infection, after PHH attachment on the culture plate, the plating medium was removed and replenished with PHH culture medium containing HBV virus. The PHH culture medium was prepared with Dulbecco's Modified Eagle Medium (DMEM)/F12 (1:1 in volume ratio) containing 10% fetal bovine serum (Gibco, Cat.10099141), 5 ng/mL human epidermal growth factor (Gibco, Cat.PHG0311L), 20 ng/mL dexamethasone (Sigma, Cat.D4902-100 mg), 250 ng/mL human recombinant insulin (Gibco, Cat.41400045) and 100 U/mL penicillin. HBV virus at 200 genome equivalent (GE) per cell with 4% PEG8000 (Sigma, Cat.P1458) containing culture medium were added to the PHH culture medium for infection. The cells were then cultured for 24 hours in cell incubator. Then the cell culture supernatant was removed. The HBV-infected PHH were cultured with sandwich culture method with PHH culture medium containing 1% DMSO and 0.25 mg/mL matrix gel for 72 hours. The supernatant was then refreshed with PHH culture medium containing different concentrations of testing compounds for two times with 72-hour interval. At the end of treatment, the supernatant was collected for viral markers measurements, including HBsAg, HBeAg, HBV DNA and cytotoxicity. HBsAg and HBeAg were detected using alphalisa method using their specific antibodies. For HBV DNA detection, HBV DNA Quantitative Fluorescence Diagnostic Kit (Sansure Biotech Inc.) was used following the manufacture's protocol. Cytotoxicity was determined using Cell Counting Kit-8 (CCK8, Dojindo Molecular Technologies, Inc.).
(§2) The compounds of the present invention were tested for their capacity to inhibit HBsAg and HBeAg as described herein.

[2] = test system: HBeAg; assay: PHH HBV natural infection assay, HBeAg (alphalisa); conditions: Hepatitis B virus, 72 h, read-out: HBeAg IC50
Method: as §1, §2

[3] = PHH natural infection assay, cytotoxicity (Cell Counting Kit-8); conditions: human; HBV-infected PHH, CCK8
Method: as §1

Compound | IC50 [1] [nM] | IC50 [2] [nM] | CC50 at 144 h [3] [nM]
C[C@H](c1ccc(C(=O)NC23CC(c4nc5ccc(Cl)cc5s4)(C2)C3)o1)S(C)(=O)=O (single isomer, unassigned) [Example 56a] | 230 | 230 | 15000
C[C@@H](c1ccc(C(=O)NC23CC(c4nc5ccc(Cl)cc5s4)(C2)C3)o1)S(C)(=O)=O (single isomer, unassigned) [Example 56b] | 190 | 160 | 14700
CS(=O)(=O)C1(c2ccc(C(=O)NC34CC(c5nc6ccc(Br)cc6s5)(C3)C4)o2)CC1 [Example 2, N-[1-(6-bromo-1,3-benzothiazol-2-yl)-3-bicyclo[1.1.1]pentanyl]-5-(1-methylsulfonylcyclopropyl)furan-2-carboxamide] | 170 | 110 | 5850
CS(=O)(=O)C1(c2nsc(C(=O)NC34CC(c5nc6ccc(Br)cc6s5)(C3)C4)n2)CC1 [Example 4] | 70 | 50 | 4220
CS(=O)(=O)C1(c2ccc(C(=O)NC34CC(c5nc6cc(Br)ccc6s5)(C3)C4)o2)CC1 [Example 6, N-(3-(5-bromobenzo[d]thiazol-2-yl)bicyclo[1.1.1]pentan-1-yl)-5-(1-(methylsulfonyl)cyclopropyl)furan-2-carboxamide] | 170 | 100 | 6030
CS(=O)(=O)C1(c2nsc(C(=O)NC34CC(c5nc6cc(Br)ccc6s5)(C3)C4)n2)CC1 [Example 7] | 100 | 60 | 8520
CS(=O)(=O)C1(c2ccc(C(=O)NC34CC(c5nc6ccc(C#N)cc6s5)(C3)C4)o2)CC1 [Example 8] | 790 | 720 | 12500
C#Cc1ccc2nc(C34CC(NC(=O)c5ccc(C6(S(C)(=O)=O)CC6)o5)(C3)C4)sc2c1 [Example 10] | 370 | 270 | 11000
CS(=O)(=O)C1(c2ccc(C(=O)NC34CC(c5nc6ccc(F)cc6s5)(C3)C4)o2)CC1 [Example 11] | 480 | 360 | 16300
CS(=O)(=O)Cc1ccc(C(=O)NC23CC(c4nc5ccc(Cl)cc5s4)(C2)C3)o1 [Example 13] | 1020 | 800 | > 50000
CCC(c1ccc(C(=O)NC23CC(c4nc5ccc(Cl)cc5s4)(C2)C3)o1)S(C)(=O)=O (stereo not drawn) [Example 14] | 200 | 150 | > 10000
CS(=O)(=O)C1(c2ccc(C(=O)NC34CC(c5nc6ccc(Cl)cc6s5)(C3)C4)o2)CC1 [Example 15] | 210 | 160 | 6330
CC(C)(c1ccc(C(=O)NC23CC(c4nc5ccc(Cl)cc5s4)(C2)C3)o1)S(C)(=O)=O [Example 16] | 290 | 240 | 3760
CC(c1ccc(C(=O)NC23CC(c4nc5ccc(Cl)cc5s4)(C2)C3)o1)S(C)(=O)=O (stereo not drawn) [Example 17, N-[3-(6-chloro-1,3-benzothiazol-2-yl)-1-bicyclo[1.1.1]pentanyl]-5-(1-methylsulfonylethyl)furan-2-carboxamide] | 170 | 150 | 14600
CC(C)(c1ncc(C(=O)NC23CC(c4nc5ccc(Cl)cc5s4)(C2)C3)o1)S(C)(=O)=O [Example 22] | 720 | 470 | 7550
CC(C)(c1cc(C(=O)NC23CC(c4nc5ccc(Cl)cc5s4)(C2)C3)sn1)S(C)(=O)=O [Example 27] | 840 | 650 | 8550
CC(c1nsc(C(=O)NC23CC(c4nc5ccc(Cl)cc5s4)(C2)C3)n1)S(C)(=O)=O (stereo not drawn) [Example 31] | 740 | 630 | 5710

Compound | IC50 [1] [nM] | IC50 [2] [nM] | CC50 at 144 h [3] [nM]
CC(C)(c1nsc(C(=O)NC23CC(c4nc5ccc(Cl)cc5s4)(C2)C3)n1)S(C)(=O)=O [Example 32] | 430 | 330 | 2950
CC(n1ccc(C(=O)NC23CC(c4nc5ccc(Cl)cc5s4)(C2)C3)n1)S(C)(=O)=O (stereo not drawn) [Example 34] | 440 | 390 | 7010
CS(=O)(=O)C(Br)c1ccc(C(=O)NC23CC(c4nc5cc(Cl)ccc5s4)(C2)C3)o1 (stereo not drawn) [Example 43] | 500 | 480 | 22800
CCC(c1ccc(C(=O)NC23CC(c4nc5cc(Cl)ccc5s4)(C2)C3)o1)S(C)(=O)=O (stereo not drawn) [Example 44] | 230 | 160 | 20400
CC(C)(c1ccc(C(=O)NC23CC(c4nc5cc(Cl)ccc5s4)(C2)C3)o1)S(C)(=O)=O [Example 45] | 390 | 250 | 9940
CC(c1ccc(C(=O)NC23CC(c4nc5cc(Cl)ccc5s4)(C2)C3)o1)S(C)(=O)=O (stereo not drawn) [Example 46] | 370 | 230 | 15300
CS(=O)(=O)C1(c2ccc(C(=O)NC34CC(c5nc6cc(Cl)ccc6s5)(C3)C4)o2)CC1 [Example 47] | 320 | 220 | 6620
C[S+]([O-])C(C)(C)c1ccc(C(=O)NC23CC(c4nc5cc(Cl)ccc5s4)(C2)C3)o1 (stereo not drawn) [Example 50] | 100 | 80 | 1640
CC(c1ccn(C(=O)NC23CC(c4nc5ccc(Cl)cc5s4)(C2)C3)n1)S(C)(=O)=O (stereo not drawn) [Example 58, N-[3-(6-chloro-1,3-benzothiazol-2-yl)-1-bicyclo[1.1.1]pentanyl]-3-(1-methylsulfonylethyl)pyrazole-1-carboxamide] | 340 | 240 | 6060
CC(C)(c1ccn(C(=O)NC23CC(c4nc5ccc(Cl)cc5s4)(C2)C3)n1)S(C)(=O)=O [Example 60] | 122 | 90 | 4820
CC(C)(c1ccn(C(=O)NC23CC(c4nc5cc(Br)ccc5s4)(C2)C3)n1)S(C)(=O)=O [Example 61] | 110 | 80 | 2090
CS(=O)(=O)C1(c2ccn(C(=O)NC34CC(c5nc6cc(Br)ccc6s5)(C3)C4)n2)CC1 [Example 62] | 70 | 40 | 3830
CS(=O)(=O)C1(c2ccn(C(=O)NC34CC(c5nc6ccc(Cl)cc6s5)(C3)C4)n2)CC1 [Example 63] | 110 | 80 | 5060
CS(=O)(=O)C1(c2ncc(C(=O)NC34CC(c5nc6ccc(Cl)cc6s5)(C3)C4)o2)CC1 [Example 67, N-[3-(6-chloro-1,3-benzothiazol-2-yl)-1-bicyclo[1.1.1]pentanyl]-2-(1-methylsulfonylcyclopropyl)oxazole-5-carboxamide] | 400 | 320 | 7250
CS(=O)(=O)C(Cl)c1ccc(C(=O)NC23CC(c4nc5cc(Cl)ccc5s4)(C2)C3)o1 (stereo not drawn) [Example 75, 5-(chloro(methylsulfonyl)methyl)-N-(3-(5-chlorobenzo[d]thiazol-2-yl)bicyclo[1.1.1]pentan-1-yl)furan-2-carboxamide] | 550 | 430 | 16800
CS(=O)(=O)C1(c2noc(C(=O)NC34CC(c5nc6ccc(Cl)cc6s5)(C3)C4)n2)CC1 [Example 76, N-[3-(6-chloro-1,3-benzothiazol-2-yl)-1-bicyclo[1.1.1]pentanyl]-3-(1-methylsulfonylcyclopropyl)-1,2,4-oxadiazole-5-carboxamide] | 700 | 400 | 4270
CS(=O)(=O)C1(c2nc(C(=O)NC34CC(c5nc6ccc(Br)cc6s5)(C3)C4)no2)CC1 [Example 77, N-[3-(6-bromo-1,3-benzothiazol-2-yl)-1-bicyclo[1.1.1]pentanyl]-5-(1-methylsulfonylcyclopropyl)-1,2,4-oxadiazole-3-carboxamide] | 860 | 620 | 6490

— patent publication US20230391764A1, “BENZOTHIAZOLYL BICYCLO[1.1.1]PENTANE DERIVATIVES FOR THE TREATMENT AND PROPHYLAXIS OF HEPATITIS B VIRUS INFECTION” (Hoffmann-La Roche Inc., priority 2021, published 2023)
